Assays:
Gelatinase (MMP-2) = target: T1, Gelatinase (MMP-2) (Homo sapiens, UniProt P08253); assay: Gelatinase (MMP-2) inhibitory activity, fluorogenic peptide substrate cleavage; format: biochemical; conditions: read-out: MMP02 IC50
T1 sequence (P08253 110-660): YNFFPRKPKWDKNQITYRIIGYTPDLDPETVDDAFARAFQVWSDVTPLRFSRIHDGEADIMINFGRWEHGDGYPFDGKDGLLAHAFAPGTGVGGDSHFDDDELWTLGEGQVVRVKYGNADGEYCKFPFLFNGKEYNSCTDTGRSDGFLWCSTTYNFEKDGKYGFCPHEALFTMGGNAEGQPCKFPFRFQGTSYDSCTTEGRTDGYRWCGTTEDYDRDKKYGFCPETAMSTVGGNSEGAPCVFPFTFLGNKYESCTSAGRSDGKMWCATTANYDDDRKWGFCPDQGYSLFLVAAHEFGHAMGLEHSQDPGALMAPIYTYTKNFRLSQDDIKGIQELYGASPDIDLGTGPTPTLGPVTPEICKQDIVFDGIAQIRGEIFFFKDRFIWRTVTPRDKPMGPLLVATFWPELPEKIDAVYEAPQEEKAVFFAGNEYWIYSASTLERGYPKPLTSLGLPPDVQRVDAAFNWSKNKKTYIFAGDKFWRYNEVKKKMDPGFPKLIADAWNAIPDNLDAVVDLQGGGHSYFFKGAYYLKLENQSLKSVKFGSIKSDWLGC
Outline: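 Fluorogenic assay with MCA-Lys-Pro-Leu-Gly-Leu-Dpa-Ala-Arg-NH2 at 5 μM in Tris-Cl pH 7.5 buffer with ZnCl2, CaCl2, Brij-35 and 1.0% DMSO, 20-25 °C. Enzyme preincubated with inhibitor 60 min; fluorescence (ex 325/em 405 nm) read 60 min after substrate addition. IC50 relative to uninhibited control.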

Collagenase-3 (MMP-13) = Collagenase-3 (MMP-13) (Homo sapiens, UniProt P45452); assay: Collagenase-3 (MMP-13) inhibitory activity, fluorogenic peptide substrate cleavage; format: biochemical; conditions: read-out: MMP13 IC50
Outline: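 Recombinant pro-MMP-13 activated with 1 mM APMA; inhibitor preincubated 60 min, then 5 μM MCA-Lys-Pro-Leu-Gly-Leu-Dpa-Ala-Arg-NH2 added in Tris-Cl pH 7.5 buffer with Zn2+, Ca2+, Brij-35, 1.0% DMSO, 20-25 °C. Fluorescence (ex 325/em 405 nm) read after 60 min; IC50 versus uninhibited control.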

## COc1ccc(C(=O)c2cccc(S(N)(=O)=O)c2)cc1 [Example 1, 3-(4-Methoxy-benzoyl)-benzenesulfonamide]
Gelatinase (MMP-2)
  IC50: 1.92 µM
Collagenase-3 (MMP-13)
  IC50: 2.49 µM
other
  melting point: 119 to 122 °C

## COc1ccc(C(=O)c2ccc(Cl)c(S(N)(=O)=O)c2)cc1 [Example 3, 2-Chloro-5-(4-methoxy-benzoyl)-benzenesulfonamide]
Gelatinase (MMP-2)
  IC50: 5.18 µM
Collagenase-3 (MMP-13)
  IC50: 2.02 µM
other
  melting point: 156 to 158 °C

## C#Cc1ccc(C(=O)c2ccc(Cl)c(S(N)(=O)=O)c2)cc1 [Example 31, 2-Chloro-5-(4-ethynyl-benzoyl)-benzenesulfonamide]
Gelatinase (MMP-2)
  IC50: 10.4 µM
Collagenase-3 (MMP-13)
  IC50: 12.4 µM
other
  melting point: 147 to 149 °C

## NS(=O)(=O)c1cc(C(=O)c2ccc(-c3ccc4ccccc4c3)cc2)ccc1Cl [Example 38, 2-Chloro-5-(4-naphthalen-2-yl-benzoyl)-benzenesulfonamide]
Gelatinase (MMP-2)
  IC50: 14.5 µM
Collagenase-3 (MMP-13)
  IC50: 8.58 µM
other
  melting point: 193 to 195 °C

## NS(=O)(=O)c1cc(C(=O)c2ccc(-c3cccnc3)cc2)ccc1Cl [Example 41, 2-Chloro-5-(4-pyridin-3-yl-benzoyl)-benzenesulfonamide]
Gelatinase (MMP-2)
  IC50: > 9 µM
Collagenase-3 (MMP-13)
  IC50: 7.52 µM
other
  melting point: 190 to 192 °C

## NS(=O)(=O)c1cc(C(=O)c2ccc(O)c(F)c2)ccc1Cl [Example 47, 2-Chloro-5-(3-fluoro-4-hydroxy-benzoyl)-benzenesulfonamide]
Gelatinase (MMP-2)
  IC50: 17.3 µM
Collagenase-3 (MMP-13)
  IC50: 11.1 µM
other
  melting point: 206 to 208 °C

## NS(=O)(=O)c1cc(C(=O)c2ccc(O)cc2F)ccc1Cl [Example 50, 2-Chloro-5-(2-fluoro-4-hydroxy-benzoyl)-benzenesulfonamide]
Gelatinase (MMP-2)
  IC50: 24.3 µM
Collagenase-3 (MMP-13)
  IC50: 21.3 µM
other
  melting point: 183 to 185 °C

## NS(=O)(=O)c1cc(C(=O)c2ccc(C(=O)N3CCCC3)cc2)ccc1Cl [Example 53, 2-Chloro-5-[4-(pyrrolidine-1-carbonyl)-benzoyl]-benzenesulfonamide]
Gelatinase (MMP-2)
  IC50: > 30 µM
Collagenase-3 (MMP-13)
  IC50: > 30 µM
other
  melting point: 146 to 148 °C

## Cc1cccc(-c2ccc(C(=O)c3ccc(Cl)c(S(N)(=O)=O)c3)cc2)c1 [Example 60, 2-Chloro-5-(3′-methyl-biphenyl-4-carbonyl)-benzenesulfonamide]
Gelatinase (MMP-2)
  IC50: 6.31 µM
Collagenase-3 (MMP-13)
  IC50: 5.44 µM
other
  melting point: 176 to 178 °C

## Nc1cccc(-c2ccc(C(=O)c3ccc(Cl)c(S(N)(=O)=O)c3)cc2)c1 [Example 69, 5-(3′-Amino-biphenyl-4-carbonyl)-2-chloro-benzenesulfonamide]
Gelatinase (MMP-2)
  IC50: 1.37 µM
Collagenase-3 (MMP-13)
  IC50: 2.41 µM
other
  melting point: 228 to 230 °C

## NS(=O)(=O)c1cc(C(=O)c2ccc(-c3cccc(C(F)(F)F)c3)cc2)ccc1Cl [Example 75, 2-Chloro-5-(3′-trifluoromethyl-biphenyl-4-carbonyl)-benzenesulfonamide]
Gelatinase (MMP-2)
  IC50: > 30 µM
Collagenase-3 (MMP-13)
  IC50: 25.9 µM
other
  melting point: 75 to 77 °C

## NS(=O)(=O)c1cc(C(=O)c2ccc3c(c2)CCN3)ccc1Cl [Example 110, 2-Chloro-5-(2,3-dihydro-1H-indole-5-carbonyl)-benzenesulfonamide]
Gelatinase (MMP-2)
  IC50: 12 µM
Collagenase-3 (MMP-13)
  IC50: 16.1 µM
other
  melting point: 55 to 56 °C

## NS(=O)(=O)c1cc(C(=O)c2ccc3[nH]ccc3c2)ccc1Cl [Example 116, 2-Chloro-5-(1H-indole-5-carbonyl)-benzenesulfonamide]
Gelatinase (MMP-2)
  IC50: 15.4 µM
Collagenase-3 (MMP-13)
  IC50: 15.3 µM
other
  melting point: 65 to 66 °C

## NS(=O)(=O)c1cc(C(=O)c2ccc3c(-c4ccnc(OCCN5CCOCC5)c4)c[nH]c3c2)ccc1Cl [Example 143, 2-Chloro-5-{3-[2-(2-morpholin-4-yl-ethoxy)-pyridin-4-yl]-1H-indole-6-carbonyl}-benzenesulfonamide]
Gelatinase (MMP-2)
  IC50: 2.85 µM
Collagenase-3 (MMP-13)
  IC50: 0.15 µM

## NS(=O)(=O)c1cc(C(=O)c2ccc3cc[nH]c3c2)ccc1F [Example 144, 2-Fluoro-5-(1H-indole-6-carbonyl)-benzenesulfonamide]
Gelatinase (MMP-2)
  IC50: 0.39 µM
Collagenase-3 (MMP-13)
  IC50: 0.3 µM

## Cc1ccc(C(=O)c2ccc3cc[nH]c3c2)cc1S(N)(=O)=O [Example 145, 5-(1H-Indole-6-carbonyl)-2-methyl-benzenesulfonamide]
Gelatinase (MMP-2)
  IC50: 0.2 µM
Collagenase-3 (MMP-13)
  IC50: 0.1 µM

## NS(=O)(=O)c1cccc(C(=O)c2ccc3cc[nH]c3c2)c1 [Example 146, 3-(1H-Indole-6-carbonyl)-benzenesulfonamide]
Gelatinase (MMP-2)
  IC50: 0.24 µM
Collagenase-3 (MMP-13)
  IC50: 0.2 µM

## Cc1cc(-c2c[nH]c3cc(C(=O)c4ccc(C)c(S(N)(=O)=O)c4)ccc23)ccn1 [Example 147, 2-Methyl-5-[3-(2-methyl-pyridin-4-yl)-1H-indole-6-carbonyl]-benzenesulfonamide]
Gelatinase (MMP-2)
  IC50: 2.4 µM
Collagenase-3 (MMP-13)
  IC50: 0.02 µM

Reference: patent publication US20130096105A1, “ArylSulfonamide Based Matrix Metalloprotease Inhibitors” (NOVARTIS AG, priority 2008, published 2013)
